Test results reported in patent US5310938A, “Substituted arylpyrrole compounds” (American Cyanamid Company, priority 1993, dated 1994).

Assays:
[1] = system: Dermacentor variabilis; test: Filter paper contact test against larval stages of the Dogtick; assay type: in vivo; details: 10.0 μg/cm^2, 48 hour
Procedure: The test procedure used herein is the same procedure described in Example 2, for evaluating the arylpyrroles for control of Psoroptes cuniculi the Rabbit Ear Mite, with the following exceptions:
(1) Unfed larval ticks are obtained from egg masses laid by gravid female ticks removed from dogs and each replicate receives ticks from the same egg mass;
(2) Ticks survive longer than mites in the Petri dishes, thus readings are made 48 hours or longer after the test is initiated; and
(3) When reading the test it may be necessary to blow on the ticks to stimulate their movement.

[2] = system: Psoroptes cuniculi; test: Filter paper contact test against Psoroptes cuniculi (Rabbit Ear Mite); assay type: in vivo; details: Psoroptes ovis, 24 hour; for mortality at 4 µg/cm2, 4 µg/cm2: 4.0 μg/cm^2, read-out: 24 hour % Mortality; for mortality at 10 µg/cm2, 10 µg/cm2: 10.0 μg/cm^2
Procedure: On the day prior to the test initiation the drugs to be evaluated are dissolved in acetone and diluted to the desired concentrations. The concentration is calculated so that 400 μl contains the amount of test compound to be placed on each filter paper. 400 μl of this solution is pipetted onto a top (3.7 cm dia.) and bottom (3.5 cm dia.) filter paper disks which are then placed on a ceramic plate to dry. There is a rough and smooth side to the filter paper. Drug should be applied to the rough side which is placed up while drying. When dry the two disks are placed in a Petri dish with the rough sides facing in, separated by one 3 mm glass bead. Dishes are held at room temperature overnight if done the day before the test.
Scab (containing mites) is collected from the ears of infested rabbits the morning of the test. This material is placed in a large Petri dish under an illuminated magnifier. Mites crawl out of the scab and are easily collected on the point of a dissecting needle or one prong of a pair of fine forceps. The top filter paper in each dish is removed and 12 mites are placed on the bottom disk and the top paper replaced. Before replacing the top of the Petri dish the rim of the dish is smeared with Vaseline to trap any escaping mites.
For evaluation tests there are generally 4 replicates of each dose which are counted at 24 hours. After mites are added to the dishes, the dishes in each replicate are placed in a tray which is then placed in a plastic bag with several wet towels and held at room temperature.
After 24 hours dishes are examined under a dissecting scope. Each dish is opened carefully and the top filter paper removed and saved. A 1/2 cm circle is drawn on the bottom filter paper and the paper gently wet in the area of the circle. All mites from the dish are transferred into the wet circle area and counted. The top cover is replaced on each dish and the dishes set aside for at least 15 minutes. After standing the dishes are examined and the mites remaining on the circle counted. These mites are dead. Percent mortality of the mites is then calculated for each treatment.

[3] = system: Caenorhabditis elegans; test: Nematicidal activity against C. elegans (motility rating); assay type: in vivo, C. elegans (Bristol strain); design: key: 9: complete kill; 8: no motility; 7: markedly reduced motility in approximately 95% of worms; 6: reduced motility; 5: slightly reduced motility; 0: normal motility, same as controls; details: read at 4 and 24 hours post-immersion
Procedure: Cultures of C. elegans (Bristol strain from J. Lewis) are maintained on E. coli lawns on NG Agar Plates at 20° C. New cultures are established weekly.
Nematodes for testing are washed from 4-5 day old cultures using Fresh Ascaris Ringers Solution (FARS). The worms are further washed with FARS,-containing gentamycin, to reduce bacterial contamination and centrifuged to separate worms from wash solution. This procedure is repeated three times. The washed worms are then added to C. brigassae Maintenance Medium (CbMM), from GIBCOa to which is added gentamycin (600 units/ml) and mycostatin (0.5 mg/ml).
Compounds are dissolved in acetone and made up to volume with equal parts of water. The final test concentration of each compound in the mixture is 150 ppm. The test material is micropipetted (25 ul) into a single well of a 96-well sterile tissue culture plate (COSTAR)^b and the solvent allowed to evaporate. These "treated" plates are used immediately or stored in a refrigerator without apparent adverse effects on the compounds.
A freshly prepared volume ([…]) of C. elegans in CbMM is micropipetted into each treated well and several control wells per plate. Culture plates are incubated at 20° C.
Observations for efficacy are made under a dissecting microscope at 4 and 24 hours post-immersion. Immediately prior to reading the plate, it is gently tapped to stimulate the movement of the worms. Activity is judged based on the drug effects on motility of the adults and larvae. […] Other factors indicating activity are easily noted such as death, rigor mortis, contraction, coiling, paralysis, abnormal twitching, reduced worm population in 48 hours and other deviation from normal behavior.
Day 0 Inoculate E. Coli-NG Agar Dish With 30-40
Day 4 Harvest New C. Elegans Population
Add C. Elegans (25-100 µL) To "Medicated"
Observe for Activity at 4 hours Post-
Day 5 Observe For Activity

Row | SMILES | Rating Against C. Elegans 150 ppm [3] | further results
1 | Cn1c(Cl)c(Cl)c(C#N)c1-c1ccc(OC(F)(F)F)cc1 [4,5-Dichloro-1-methyl-2-[P-(trifluoromethoxy)phenyl]-pyrrole-3-carbonitrile] | – | mortality at 10 µg/cm2, 10 µg/cm2 [1]: 55%
2 | N#Cc1c(Br)[nH]c(-c2ccc(Cl)cc2)c1Br [2,4-dibromo-5-(p-chlorophenyl)pyrrole-3-carbonitrile] | – | mortality at 4 µg/cm2, 4 µg/cm2 [2]: 11%
3 | CCOCn1c(C(F)(F)F)cc([N+](=O)[O-])c1-c1ccc(Cl)c(Cl)c1 [2-(3,4-Dichlorophenyl)-1-(ethoxymethyl)-3-nitro-5-(trifluoromethyl)pyrrole] | – | mortality at 4 µg/cm2, 4 µg/cm2 [2]: 92%
4 | CCOCn1c(-c2ccc(Br)cc2)c(C#N)c(Br)c1C(F)(F)F [4-Bromo-2-(P-bromophenyl)-1-(ethoxymethyl)-5-(trifluoromethyl)pyrrole-3-carbonitrile] | – | mortality at 4 µg/cm2, 4 µg/cm2 [2]: 31%
5 | N#Cc1c(Br)c(Br)n(Cc2ccccc2)c1-c1ccc(C(F)(F)F)cc1 [1-Benzyl-4,5-dibromo-2-(α,α,α-trifluoro-p-tolyl)pyrrole-3-carbonitrile] | 9 | –
6 | N#Cc1c(-c2ccc(Cl)c(Cl)c2)[nH]c(Cl)c1Cl [4,5-dichloro-2-(3,4-dichlorophenyl)pyrrole-3-carbonitrile] | – | mortality at 10 µg/cm2, 10 µg/cm2 [2]: 33%; mortality at 10 µg/cm2, 10 µg/cm2 [1]: 40%
7 | N#Cc1[nH]c(-c2ccc(Cl)c(Cl)c2)c([N+](=O)[O-])c1Br [3-Bromo-5-(3,4-dichlorophenyl)-4-nitropyrrole-2-carbonitrile] | 9 | –
8 | N#Cc1cc([N+](=O)[O-])[nH]c1-c1ccc(Cl)cc1 [2-(p-chlorophenyl)-5-nitropyrrole-3-carbonitrile] | 9 | –
9 | CS(=O)(=O)c1ccc(-c2[nH]c(Br)c(Br)c2C#N)cc1 [4,5-Dibromo-2-[P-(methylsulfonyl)phenyl]-pyrrole-3-carbonitrile] | 9 | –
10 | CCOCn1c(-c2ccc(Cl)cc2Cl)c(C#N)c(Br)c1C(F)(F)F [4-Bromo-2-(2,4-Dichlorophenyl)-1-(ethoxymethyl)-5-(trifluoromethyl)pyrrole-3-carbonitrile] | 9 | –
11 | N#Cc1c(Br)[nH]c(C(F)(F)F)c1-c1ccc(Cl)cc1 [2-Bromo-4-(P-chlorophenyl)-5-(trifluoromethyl)pyrrole-3-carbonitrile] | 9 | –
12 | N#Cc1c(-c2ccc(C(F)(F)F)cc2)[nH]c(Br)c1Br [4,5-Dibromo-2-(α,α,α-trifluoro-p-tolyl)pyrrole-3-carbonitrile] | 9 | –
13 | N#Cc1cc(C#N)c(-c2ccc(Cl)c(Cl)c2)[nH]1 [5-(3,4-Dichlorophenyl)-pyrrole-3-dicarbonitrile] | 9 | –
14 | N#Cc1c(-c2cccc([N+](=O)[O-])c2)[nH]c(C(F)(F)F)c1Br [4-Bromo-2-(m-nitrophenyl)-5-(trifluoromethyl)pyrrole-3-carbonitrile] | 9 | –
15 | N#Cc1c(-c2ccc(Cl)c(Cl)c2)[nH]c(C(F)(F)F)c1Br [4-Bromo-2-(3,4-dichlorophenyl)-5-(trifluoromethyl)pyrrole-3-carbonitrile] | 9 | –
16 | N#Cc1c(Br)[nH]c(-c2ccc(C(F)(F)F)cc2)c1Br [2,4-Dibromo-5-(α,α,α-trifluoro-P-tolyl)pyrrole-3-carbonitrile] | 9 | –
17 | C=CCn1c(Cl)c(Cl)c(C#N)c1-c1ccc(Cl)c(Cl)c1 [1-Alkyl-4,5-dichloro-2-(3,4-dichlorophenyl)pyrrole-3-carbonitrile] | 9 | –
18 | N#Cc1[nH]c(Br)c(C#N)c1-c1ccc(Cl)cc1 [5-Bromo-3-(P-chlorophenyl)-pyrrole-2,4-dicarbonitrile] | 9 | –

Row | SMILES | Rating Against C. Elegans 150 ppm [3] | further results
19 | N#Cc1c(-c2ccc([N+](=O)[O-])cc2)[nH]c(Cl)c1Cl [4,5-Dichloro-2-(P-nitrophenyl)-pyrrole-3-carbonitrile] | 9 | –
20 | O=[N+]([O-])c1c(-c2ccc(Br)cc2)[nH]c(Cl)c1Cl [2-(P-bromophenyl)-4,5-dichloro-3-nitropyrrole] | 9 | –
21 | N#Cc1ccc(-c2[nH]c(Br)c(Br)c2C#N)cc1 [4,5-Dibromo-2-(P-cyanophenyl)-pyrrole-3-carbonitrile] | 9 | –
22 | O=[N+]([O-])c1cc([N+](=O)[O-])c(-c2ccc(Br)cc2)[nH]1 [2-(P-bromophenyl)-3,5-dimitropyrrole] | 9 | –
23 | N#Cc1c[nH]c(-c2ccc(C(F)(F)F)cc2)c1 [5-(α,α,α-trifluoro-tolyl)-pyrrole-3-carbonitrile] | 9 | –
24 | N#Cc1c(-c2ccc([N+](=O)[O-])cc2)[nH]c(Br)c1Br [4,5-Dibromo-2-(P-nitrophenyl)-pyrrole-3-carbonitrile] | 9 | –
25 | N#Cc1c(Br)[nH]c(C(F)(F)F)c1-c1ccccc1 [2-Bromo-4-phenyl-5-(trifluoromethyl)pyrrole-3-carbonitrile] | 9 | –
26 | CCOCn1c(Cl)c(Cl)c(C#N)c1-c1ccc(OC(F)(F)F)cc1 [4,5-Dichloro-1-(ethoxymethyl)-2-[P-(trifluoromethoxy)phenyl]pyrrole-3-carbonitrile] | – | mortality at 4 µg/cm2, 4 µg/cm2 [2]: 100%
27 | N#Cc1c(-c2ccccc2Cl)[nH]c(Br)c1Br [4,5-Dibromo-2-(0-chlorophenyl)-pyrrole-3-carbonitrile] | 9 | –
28 | N#CCn1c(-c2ccc(Cl)cc2)c(C#N)c(Br)c1C(F)(F)F [3-Bromo-5-(P-chlorophenyl)-4-cyano-2-(trifluoromethyl)-pyrrole-1-acetonitrile] | 9 | –
29 | N#Cc1cc[nH]c1-c1cc(F)c(Cl)cc1Cl [2-(2,4-Dichloro-5-fluorophenyl)pyrrole-3-carbonitrile] | – | mortality at 4 µg/cm2, 4 µg/cm2 [2]: 73%
30 | CCOCn1c(-c2ccc(C(F)(F)F)cc2)c(C#N)c(Br)c1C(F)(F)F [4-Bromo-1-(ethoxymethyl)-5-(trifluoromethyl)-2-(α,α,α-trifluoro-P-tolyl)-pyrrole-3-carbonitrile] | 9 | –
31 | N#Cc1[nH]c(-c2ccc(Cl)c(Cl)c2)c(Br)c1Br [3,4-dibromo-5-(3,4-dichlorophenyl)pyrrole-2-carbonitrile] | 9 | –
32 | N#Cc1c[nH]c(C(F)(F)F)c1-c1ccccc1 [4-Phenyl-5-(trifluoromethyl)pyrrole-3-carbonitrile] | 9 | –
33 | O=[N+]([O-])c1c(-c2ccc(Cl)cc2)[nH]c(Cl)c1Cl [2,3-Dichloro-5-(P-chlorophenyl)-4-nitropyrrole] | 9 | mortality at 4 µg/cm2, 4 µg/cm2 [2]: 52%; mortality at 10 µg/cm2, 10 µg/cm2 [2]: 91%; mortality at 10 µg/cm2, 10 µg/cm2 [1]: 58%
34 | COCCn1c(Cl)c(Cl)c(C#N)c1-c1ccc(C(F)(F)F)cc1 [4,5-Dichloro-1-(methoxyethyl)-2-(α,α,α-trifluoro-P-tolyl)pyrrole-3-carbonitrile] | 9 | –
35 | N#Cc1c(-c2ccc(C(F)(F)F)cc2)[nH]c([N+](=O)[O-])c1Br [4-Bromo-5-nitro-2-(α,α,α-trifluoro-P-tolyl)pyrrole-3-carbonitrile] | 9 | –
